Laboratory results reported in patent US20250289785A1, “INDOLE DERIVATIVE, METHOD FOR PREPARING SAME, AND USE THEREOF” (MITOIMMUNE THERAPEUTICS INC., priority 2021, published 2025).
pEC50: −log10 of the molar value.

System: H9C2 cells
Experiment: Cell protection effect against t-BHP in heart cells (LDH release)
Format: cell-based
Settings: H9C2, t-BHP 40 μM, 2 hours
Protocol: In order to identify the protective effect with regard to heart cells, H9C2 cells were divided into 96-well plates by 1.5×10^4, and cultured for 24 hours. The respective wells were treated with compounds of the examples 3× serial diluted to final concentrations of […], then cultured for 15 to 20 minutes. After treating with t-BHP with a final concentration of 40 μM, culturing was performed for 2 hours. In order to identify the protective effect of each compound, a Cytotoxicity LDH assay kit [Dojindo; CK12] was used to measure the degree of extracellular secretion of LDH. To describe briefly, at the time point 2-hour treatment of the cells with t-BHIP was completed, 100 μL each of the supernatant in which the cells were placed was collected and moved to a new 96-well plate. 100 μL/well of the assay buffer included in the kit (same amount as the sample) was added, followed by wrapping with foil and reacting for 30 minutes at room temperature. Observing the change in color of the sample, 50 μL/well of stop solution was added, then an iD3 spectrometer was used to measure absorbance at 490 nm and calculate the EC50 values. The EC50 of the compounds of the examples is preferably no more than 1.0 μM, and more preferably no more than 0.3 μM.

`CCOCc1cc(NC2CCOCC2)c2[nH]c(-c3ccccc3)c(C#N)c2c1` [Example 24, 5-(ethoxymethyl)-2-phenyl-7-((tetrahydro-2H-pyran-4-yl)amino)-1H-indole-3-carbonitrile] and `CCOCc1cc(NC2CCOCC2)c2[nH]c(-c3ccccc3)c(/C=N/OC)c2c1` [Example 27] cannot be ordered by pEC50: 6.00 to 6.52 for the first, at least 6.52 for the second.

`CCOCc1cc(NC2CCCC2)c2[nH]c(-c3ccccc3)c(/C=N/OC)c2c1` [Example 25, (E)-7-(cyclopentylamino)-5-(ethoxymethyl)-2-phenyl-1H-indole-3-carbaldehyde O-methyl oxime] and `CCOCc1cc(NC2CCCC2)c2[nH]c(-c3ccccc3)c(/C=C/C(=O)OC)c2c1` [Example 30, methyl (E)-3-(7-(cyclopentylamino)-5-(ethoxymethyl)-2-phenyl-1H-indol-3-yl)acrylate] cannot be ordered by pEC50: at least 6.52 for the first, at least 6.52 for the second.

First: CCOCc1cc(N(C2CCOCC2)C2CCOCC2)c2[nH]c(-c3ccccc3)c(/C=N/OC)c2c1 [Example 26, (E)-7-(bis(tetrahydro-2H-pyran-4-yl)amino)-5-(ethoxymethyl)-2-phenyl-1H-indole-3-carbaldehyde O-methyl Oxime]
Second: CCOCc1cc(NC2CCOCC2)c2[nH]c(-c3ccccc3)c(/C=C/C(=O)OC)c2c1 [Example 31, Methyl (E)-3-(5-(ethoxymethyl)-2-phenyl-7-((tetrahydro-2H-pyran-4-yl)amino)-1H-indole-3-yl)acrylate]
The pEC50 of the first is lower: under 6.00 for the first, at least 6.52 for the second. The second is the more potent here.

`CCOCc1cc(NC2CCCC2)c2c(c1)c(COC)c(-c1ccccc1)n2C` [Example 28, N-cyclopentyl-5-(ethoxymethyl)-3-(methoxymethyl)-1-methyl-2-phenyl-1H-indol-7-amine] and `CCOCc1cc(NC2CCCC2)c2[nH]c(-c3ccccc3)c(CCC(=O)OC)c2c1` [Example 38, Methyl 3-(7-(cyclopentylamino)-5-(ethoxymethyl)-2-phenyl-1H-indol-3-yl)propanoate] cannot be ordered by pEC50: 6.00 to 6.52 for the first, at least 6.52 for the second.

`CCOCc1cc(NC2CCCC2)c2[nH]c(-c3ccccc3)c(C(=O)C(F)(F)F)c2c1` [Example 32, 1-(7-(cyclopentylamino)-5-(ethoxymethyl)-2-phenyl-1H-indol-3-yl)-2,2,2-trifluoroethan-1-one] and `CCOCc1cc(NC2CCOCC2)c2[nH]c(-c3ccccc3)c(C(=O)C(F)(F)F)c2c1` [Example 33, 1-(5-(ethoxymethyl)-2-phenyl-7-((tetrahydro-2H-pyran-4-yl)amino)-1H-indol-3-yl)-2,2,2-trifluoro-1-one] cannot be ordered by pEC50: at least 6.52 for the first, 6.00 to 6.52 for the second.

`CCOCc1cc(NC2CCCC2)c2[nH]c(-c3ccccc3)c(/C=C/C(=O)c3ccccc3)c2c1` [Example 34, (E)-3-(7-(cyclopentylamino)-5-(ethoxymethyl)-2-phenyl-1H-indol-3-yl)-1-phenylpropan-2-ene-1-one] and `CCOCc1cc(NC2CCOCC2)c2[nH]c(-c3ccccc3)c(/C=C/C(=O)c3ccccc3)c2c1` [Example 35, (E)-3-(5-(ethoxymethyl)-2-phenyl-7-((tetrahydro-2H-pyran-4-yl)amino)-1H-indol-3-yl)-1-phenylpropan-2-en-1-one] cannot be ordered by pEC50: at least 6.52 for the first, at least 6.52 for the second.

`CCOCc1cc(NC2CCCC2)c2[nH]c(-c3ccccc3)c(C(O)C(F)(F)F)c2c1` (stereo not drawn) [Example 36, 1-(7-(cyclopentylamino)-5-(ethoxymethyl)-2-phenyl-1H-indol-3-yl)-2,2,2-trifluoroethan-1-ol] and `CCOCc1cc(NC2CCOCC2)c2[nH]c(-c3ccccc3)c(C(O)C(F)(F)F)c2c1` (stereo not drawn) [Example 37, 1-(5-(ethoxymethyl)-2-phenyl-7-((tetrahydro-2H-pyran-4-yl)amino)-1H-indol-3-yl)-2,2,2-trifluoro-1-ol] cannot be ordered by pEC50: at least 6.52 for the first, 6.00 to 6.52 for the second.

Compared with `CCOCc1cc(NC2CCOCC2)c2[nH]c(-c3ccccc3)c(CCC(=O)OC)c2c1` [Example 39, Methyl 3-(5-(ethoxymethyl)-2-phenyl-7-((tetrahydro-2H-pyran-4-yl)amino)-1H-indol-3-yl)propanoate], `CCOCc1cc(NC2CCCC2)c2[nH]c(-c3ccccc3)c(CCC(=O)O)c2c1` [Example 40, 3-(7-(cyclopentylamino)-5-(ethoxymethyl)-2-phenyl-1H-indol-3-yl)propanoic acid] is lower in pEC50: at least 6.52 for the first, under 6.00 for the second. The first is the more potent here.

`COCCc1cc(NC2CCCC2)c2[nH]c(-c3ccccc3)cc2c1` [Example 42, N-cyclopentyl-5-(2-methoxyethyl)-2-phenyl-1H-indol-7-amine] and `COCCCc1cc(NC2CCOCC2)c2[nH]c(-c3ccccc3)cc2c1` [Example 50, 5-(3-methoxypropyl)-2-phenyl-N-(tetrahydro-2H-pyran-4-yl)-1H-indol-7-amine] cannot be ordered by pEC50: at least 6.52 for the first, at least 6.52 for the second.

First: CCOCc1cc(NC2CCCC2)c2[nH]c(-c3ccccc3)c(-c3nccn3C(=O)OCC)c2c1 [Example 43, Ethyl 2-(7-(cyclopentylamino)-5-(ethoxymethyl)-2-phenyl-1H-indol-3-yl)-1H-imidazole-1-carboxylate]
Second: CCOCc1cc(NC2CCOCC2)c2[nH]c(-c3ccccc3)c(-c3nccn3C(=O)OCC)c2c1 [Example 44, ethyl 2-(5-(ethoxymethyl)-2-phenyl-7-((tetrahydro-2H-pyran-4-yl)amino)-1H-indol-3-yl)-1H-imidazole-1-carboxylate]
The pEC50 of the first is higher: 6.00 to 6.52 for the first, under 6.00 for the second. The first is the more potent here.

`CCOCc1cc(NC2CCCC2)c2[nH]c(-c3ccccc3)c(-c3ncc[nH]3)c2c1` [Example 45, N-cyclopentyl-5-(ethoxymethyl)-3-(1H-imidazol-2-yl)-2-phenyl-1H-indol-7-amine] and `CCCOCc1cc(NC2CCOCC2)c2[nH]c(-c3ccccc3)cc2c1` [Example 47, 2-phenyl-5-(propoxymethyl)-N-(tetrahydro-2H-pyran-4-yl)-1H-indol-7-amine] cannot be ordered by pEC50: 6.00 to 6.52 for the first, at least 6.52 for the second.

`c1ccc(-c2cc3cc(COCC4CC4)cc(NC4CCOCC4)c3[nH]2)cc1` [Example 48, 5-((cyclopropylmethoxy)methyl)-2-phenyl-N-(tetrahydro-2H-pyran-4-yl)-1H-indol-7-amine] and `CCOCCCc1cc(NC2CCOCC2)c2[nH]c(-c3ccccc3)cc2c1` [Example 51, 5-(3-ethoxypropyl)-2-phenyl-N-(tetrahydro-2H-pyran-4-yl)-1H-indol-7-amine] cannot be ordered by pEC50: at least 6.52 for the first, at least 6.52 for the second.

`CCOCc1cc(NCC2CCOCC2)c2[nH]c(-c3ccccc3)cc2c1` [Example 49, 5-(ethoxymethyl)-2-phenyl-N-((tetrahydro-2H-pyran-4-yl)methyl)-1H-indol-7-amine] showed a pEC50 of at least 6.52.

System: not listed separately
Experiment: Plasma and brain concentration after oral administration to ICR mice (HPLC-MS/MS)
Format: in vivo
Settings: ICR mouse, 10 mg/kg, 2 hours after administration
Protocol: […] parameters can be represented as maximum concentration in plasma (Cmax), time taken until maximum concentration in plasma (Tmax), area under the plasma concentration-time curve (AUClast and AUCinf), and half-life (t1/2), and the like.
The compound of example 2 was orally administered to ICR mice at a dose of 10 mg/kg, and drug concentration in mouse plasma was measured using HPLC-MS/MS spectroscopy at 0.5, 1, 2, 4, 8 and 24 hours. The mouse brains were removed at 2 or 24 hours, and drug concentration in the brain was measured using HPLC-MS/MS spectroscopy. The area under the plasma concentration v. time curve (AUCinf) was measured to be […], and at 2 hours after administration drug concentration in plasma was 546 ng/mL and brain drug concentration was measured at 1043 ng/mL. […] Further, at 24 hours after administration, for Embodiment 2, drug concentration in plasma was measured to be 4.7 ng/mL and drug concentration in the brain was measured at 5.7 ng/mL. With the brain-plasma drug concentration ratio at 1.23, drug exposure in the brain was still high.
The Comparative Example compound was orally administered to ICR mice at a dose of 10 mg/kg, and drug concentration in mouse plasma was measured using HPLC-MS/MS spectroscopy at 0.5, 1, 2, 4, 8 and 24 hours. The mouse brains were removed at 2 or 24 hours, and drug concentration in the brain was measured using HPLC-MS/MS spectroscopy.

In the case of `OCc1cc(NC2CCCC2)c2[nH]c(-c3ccccc3)cc2c1` [Comparative Example, reference compound], the brain drug concentration was 95.1 ng/mL.

With `OCc1cc(NC2CCCC2)c2[nH]c(-c3ccccc3)cc2c1` [Comparative Example, reference compound] the “drug concentration in plasma” value was 1122.4 ng/mL.
